Target: T1, human β2AR (Homo sapiens, UniProt P07550)
T1 construct: expressed in transfected cells
Test: GPCR internalization assay using NanoBiT technology (β2AR-SmBiT with LgBiT-FYVE, early endosomes)
Assay type: cell-based
Conditions: for Internalization of GPCRs (luminescent signal) in the presence of endocytosis inhibitors: 10 μM of endocytosis inhibitors, cells pretreated, then ligand stimulation
Text: Applicant initially focused on studying the different internalization rates of class A G-protein coupled receptors (GPCRs). For this, Applicant first established a set of GPCRs involved in a wide variety of physiological functions and diseases such as Galanin (GAL receptors), Chemokine receptors (CCR), and β-adrenergic receptors ((βAR). Applicant devised a strategy to monitor how the GPCR bound to its corresponding ligand is removed from the cell surface, subsequently localized in early endosomes, and then finally recycled into the cell membrane. To accomplish this, Applicant covalently linked a small fragment of NLuc (SmBiT) to the C-terminal of the receptor, where a flexible linker is located between the two proteins (FIGS. 9-10). This linker was designed to be composed mainly of glycine and alanine amino acids to provide flexibility and not to alter the pharmacological properties of the native receptor (FIGS. 2A-2B).
FYVE domains bind phosphatidylinositol 3-phosphate from early endosomes, in a manner that is dependent on its metal ion coordination and basic amino acids. This FYVE domain inserts into cell membranes in a pH-dependent manner, where it is composed of two small beta hairpins (or zinc knuckles) and followed by an alpha helix. Additionally, the FYVE finger binds two zinc ions where this FYVE finger has eight potential zinc coordinating cysteine positions and is characterized by having basic amino acids around the cysteines. To achieve this, the gene of the FYVE domain of the human Endofin (residues from Q739 to K806) was synthesized and covalently attached by molecular cloning into a large fragment of NLuc (LgBiT) at the N-termini (FIGS. 2A-2B).
The ability to monitor internalization in response to ligand stimulation was assessed in HEK293 cells expressing the corresponding human receptor. In the case of GPCRs, the assay was performed using the corresponding endogenous ligands (i.e., epinephrine).
HEK293 cells were maintained in Dulbecco's modified Eagle's medium (DMEM) supplemented with 10% fetal bovine serum (FBS), 100 U/ml penicillin G, and […] streptomycin (Invitrogen; Carlsbad, CA, USA). At 1 day before transfection, the cells were seeded in 96-well plates at a density of 2.5×10^4 cells per well. […] After a 10 minute incubation, 25 μl substrate (furimazine) was added, and once every minute subsequent luminescence measurements were taken for 5-10 minutes for signal stabilization. A total of 10 μl of ligand, antibody, or viral suspension was then added to each well and luminescence measurements were recorded immediately and once every minute for 1-3 hours (Synergy 2 Multi-Mode Microplate Reader BioTek, Winooski, VT, USA).

T1 sequence (P07550 whole entry): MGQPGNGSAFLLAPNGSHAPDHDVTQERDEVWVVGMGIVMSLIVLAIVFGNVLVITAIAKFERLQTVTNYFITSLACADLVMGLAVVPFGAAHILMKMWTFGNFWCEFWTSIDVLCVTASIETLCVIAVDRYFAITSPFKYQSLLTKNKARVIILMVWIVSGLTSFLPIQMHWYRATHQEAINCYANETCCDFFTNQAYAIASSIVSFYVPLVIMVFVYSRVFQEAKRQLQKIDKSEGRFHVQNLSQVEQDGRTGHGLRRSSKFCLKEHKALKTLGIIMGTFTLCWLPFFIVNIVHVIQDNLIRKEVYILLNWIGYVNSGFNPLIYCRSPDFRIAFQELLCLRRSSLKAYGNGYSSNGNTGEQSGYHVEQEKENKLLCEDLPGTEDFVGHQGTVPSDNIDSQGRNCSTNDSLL

Cn1c(CNc2cccc(C(=O)NCc3ccccc3C(F)(F)F)c2)nnc1-c1ccncc1 [Cmpd101]
Internalization of GPCRs (luminescent signal) in the presence of endocytosis inhibitors: inhibited

O=C1N=C(NS(=O)(=O)c2cccc3ccccc23)SC1=Cc1ccc(Br)cc1 [PiTStop]
Internalization of GPCRs (luminescent signal) in the presence of endocytosis inhibitors: inhibited

CNC[C@H](O)c1ccc(O)c(O)c1 [epinephrine]
Blue luminescent signal (β2AR translocation into early endosomes) in response to the agonist (different concentrations of epinephrine): increased the blue luminescent signal in a concentration-dependent manner

O=C(N/N=C/c1ccc(O)c(O)c1)c1cc2ccccc2cc1O [Dynasore]
Internalization of GPCRs (luminescent signal) in the presence of endocytosis inhibitors: inhibited

— patent publication US20230417736A1, “MONITORING MEMBRANE PROTEIN TRAFFICKING FOR DRUG DISCOVERY AND DRUG DEVELOPMENT” (UNIVERSITY OF HOUSTON SYSTEM, priority 2020, published 2023)
